How the values were obtained:
[1] = system: CAKI-1; test: NCI60 five-dose screen; assay type: cell-based; details: Homo sapiens, CAKI-1, renal cancer; for CC50: read-out: LC50 (the source's name)
[2] = system: LOX IMVI; test: NCI60 five-dose screen; assay type: cell-based; details: Homo sapiens, melanoma; for CC50: read-out: LC50 (the source's name)
[3] = system: TK-10; test: NCI60 five-dose screen; assay type: cell-based; details: Homo sapiens, TK-10, renal cancer; for CC50: read-out: LC50 (the source's name)
[4] = system: HL-60 (TB); test: NCI60 five-dose screen; assay type: cell-based; details: Homo sapiens, leukemia; for CC50: read-out: LC50 (the source's name)
[5] = system: NCI-H23; test: NCI60 five-dose screen; assay type: cell-based; details: Homo sapiens, NCI-H23, NSC lung cancer; for CC50: read-out: LC50 (the source's name)
[6] = system: MALME-3M; test: NCI60 five-dose screen; assay type: cell-based; details: Homo sapiens, melanoma; for CC50: read-out: LC50 (the source's name)
[7] = system: HS 578T; test: NCI60 five-dose screen; assay type: cell-based; details: Homo sapiens, breast cancer; for CC50: read-out: LC50 (the source's name)
[8] = system: SNB-75; test: NCI60 five-dose screen; assay type: cell-based; details: Homo sapiens, SNB-75, CNS cancer; for CC50: read-out: LC50 (the source's name)
[9] = system: A549/ATCC; test: NCI60 five-dose screen; assay type: cell-based; details: Homo sapiens, NSC lung cancer; for CC50: read-out: LC50 (the source's name)
[10] = system: SF-268; test: NCI60 five-dose screen; assay type: cell-based; details: Homo sapiens, SF-268, CNS cancer; for CC50: read-out: LC50 (the source's name)
[11] = system: HCC-2998; test: NCI60 five-dose screen; assay type: cell-based; details: Homo sapiens, HCC-2998, colon cancer; for CC50: read-out: LC50 (the source's name)
[12] = system: BT-549; test: NCI60 five-dose screen; assay type: cell-based; details: Homo sapiens, BT-549, breast cancer; for CC50: read-out: LC50 (the source's name)
[13] = system: DU-145; test: NCI60 five-dose screen; assay type: cell-based; details: Homo sapiens, DU-145, prostate cancer; for CC50: read-out: LC50 (the source's name)
[14] = system: MDA-MB-468; test: NCI60 five-dose screen; assay type: cell-based; details: Homo sapiens, MDA-MB-468, breast cancer; for CC50: read-out: LC50 (the source's name)
[15] = system: UACC-62; test: NCI60 five-dose screen; assay type: cell-based; details: Homo sapiens, UACC-62, melanoma; for CC50: read-out: LC50 (the source's name)
[16] = system: 786-0; test: NCI60 five-dose screen; assay type: cell-based; details: Homo sapiens, 786-0, renal cancer; for CC50: read-out: LC50 (the source's name)
[17] = target: T1, Human CYP19 (aromatase) (Homo sapiens, UniProt P11511); test: Aromatase inhibition assay (DBF fluorometric substrate); assay type: biochemical; details: active defined as IC50 < 12.5 µM
T1 construct: purchased GENTEST, Woburn, MA 456260; host or cells: baculovirus/insect cells
T1 sequence (P11511 1-503): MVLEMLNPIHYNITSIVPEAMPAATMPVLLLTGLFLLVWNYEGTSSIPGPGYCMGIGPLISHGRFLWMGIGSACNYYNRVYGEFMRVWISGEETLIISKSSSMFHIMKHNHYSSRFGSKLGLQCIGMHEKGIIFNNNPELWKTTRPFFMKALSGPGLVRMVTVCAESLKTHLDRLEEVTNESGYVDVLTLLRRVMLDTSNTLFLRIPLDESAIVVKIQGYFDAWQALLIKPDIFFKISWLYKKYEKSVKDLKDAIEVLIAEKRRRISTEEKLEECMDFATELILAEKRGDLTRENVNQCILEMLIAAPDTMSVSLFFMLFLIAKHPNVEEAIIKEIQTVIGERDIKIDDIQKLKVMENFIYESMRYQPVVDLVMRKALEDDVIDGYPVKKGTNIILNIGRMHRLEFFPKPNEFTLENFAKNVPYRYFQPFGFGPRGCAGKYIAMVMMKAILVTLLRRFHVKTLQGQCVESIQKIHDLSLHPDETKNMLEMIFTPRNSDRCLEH
Outline: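 Insect-cell-expressed human CYP19 Supersomes with oxidoreductase turned over DBF for 30 min at 37 °C after a 10 min 37 °C pre-incubation with cofactor. NaOH quench; product measured by fluorescence, excitation 490 nm, emission 530 nm.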

[18] = system: OVCAR-3; test: NCI60 five-dose screen; assay type: cell-based; details: Homo sapiens, OVCAR-3, ovarian cancer; for CC50: read-out: LC50 (the source's name)
[19] = system: NCI-H226; test: NCI60 five-dose screen; assay type: cell-based; details: Homo sapiens, NCI-H226, NSC lung cancer; for CC50: read-out: LC50 (the source's name)
[20] = system: SK-MEL-5; test: NCI60 five-dose screen; assay type: cell-based, human; details: Homo sapiens; for CC50: SK-MEL-5, SK-MEL-5, melanoma, read-out: LC50 (the source's name); for GI50: SK-MEL-5, melanoma
[21] = system: SNB-19; test: NCI60 five-dose screen; assay type: cell-based; details: Homo sapiens, SNB-19, CNS cancer; for CC50: read-out: LC50 (the source's name)
[22] = system: COLO 205; test: NCI60 five-dose screen; assay type: cell-based, human; details: Homo sapiens; for CC50: COLO 205, COLO 205, colon cancer, read-out: LC50 (the source's name); for GI50: COLO 205, colon cancer
[23] = system: MDA-MB-435; test: NCI60 five-dose screen; assay type: cell-based, human; details: Homo sapiens; for CC50: MDA-MB-435, MDA-MB-435, melanoma, read-out: LC50 (the source's name); for GI50: MDA-MB-435, melanoma
[24] = system: OVCAR-5; test: NCI60 five-dose screen; assay type: cell-based; details: Homo sapiens, OVCAR-5, ovarian cancer; for CC50: read-out: LC50 (the source's name)
[25] = system: SK-OV-3; test: NCI60 five-dose screen; assay type: cell-based; details: Homo sapiens, SK-OV-3, ovarian cancer; for CC50: read-out: LC50 (the source's name)

## O=C(N/N=C/c1ccc([N+](=O)[O-])[nH]1)c1[nH]c2ccc(Br)cc2c1-c1ccccc1 [Derivative 3p, (E)-5-Bromo-N′-((5-nitro-1H-pyrrol-2-yl)methylene)-3-phenyl-1H-indole-2-carbohydrazide]
[1]
  GI50: 0.411 µM
  CC50: 34.9 µM
[2]
  GI50: 0.519 µM
  CC50: 35.8 µM
[3]
  GI50: 12.2 µM
  CC50: 53.8 µM
[4]
  GI50: 0.374 µM
  CC50: > 100 µM
[5]
  GI50: 1.45 µM
  CC50: 35.4 µM
[6]
  GI50: 3.23 µM
  CC50: 56.2 µM
[7]
  GI50: 0.27 µM
  CC50: 94.3 µM
[8]
  GI50: 0.482 µM
  CC50: 40.5 µM
[9]
  GI50: 2.23 µM
  CC50: 44.9 µM
[10]
  GI50: 1.47 µM
  CC50: 44.2 µM
[11]
  GI50: 1.67 µM
  CC50: 19.6 µM
[12]
  GI50: 1.52 µM
  CC50: 28.4 µM
[13]
  GI50: 1.84 µM
  CC50: 32.5 µM
[14]
  GI50: 0.873 µM
  CC50: 34.7 µM
[15]
  GI50: 0.451 µM
  CC50: 40.9 µM
[16]
  GI50: 0.803 µM
  CC50: 41.4 µM
[17]
  IC50: 1.4 ± 0.3 µM
[18]
  GI50: 0.602 µM
  CC50: 34.8 µM
[19]
  GI50: 2.43 µM
  CC50: 46.9 µM
[20]
  CC50: 8.69 µM
  GI50: 1.02 µM
[21]
  GI50: 3.34 µM
  CC50: 42.4 µM
[22]
  CC50: 8.08 µM
  GI50: 1.52 µM
[23]
  CC50: 29.8 µM
  GI50: 0.253 µM
[24]
  GI50: 2.87 µM
  CC50: 40.9 µM
[25]
  GI50: 2.95 µM
  CC50: 43 µM

## O=C(N/N=C/c1cc([N+](=O)[O-])c[nH]1)c1[nH]c2ccc(Br)cc2c1-c1ccccc1 [Derivative 3q, (E)-5-Bromo-N′-((4-nitro-1H-pyrrol-2-yl)methylene)-3-phenyl-1H-indole-2-carbohydrazide]
[1]
  GI50: 0.53 µM
  CC50: > 100 µM
[2]
  GI50: 0.647 µM
  CC50: > 100 µM
[3]
  GI50: 76 µM
  CC50: > 100 µM
[4]
  GI50: 0.633 µM
  CC50: > 100 µM
[5]
  GI50: 2.57 µM
  CC50: > 100 µM
[6]
  GI50: 0.83 µM
  CC50: > 100 µM
[7]
  GI50: 0.486 µM
  CC50: > 100 µM
[8]
  GI50: 0.242 µM
  CC50: > 100 µM
[9]
  GI50: 1.79 µM
  CC50: > 100 µM
[10]
  GI50: 0.774 µM
  CC50: > 100 µM
[11]
  GI50: 3.66 µM
  CC50: > 100 µM
[12]
  GI50: 2.47 µM
  CC50: > 100 µM
[13]
  GI50: 3.87 µM
  CC50: > 100 µM
[14]
  GI50: 0.503 µM
  CC50: > 100 µM
[15]
  GI50: 0.538 µM
  CC50: > 100 µM
[16]
  GI50: 2.21 µM
  CC50: > 100 µM
[17]
  IC50: > 12.5 µM
  aromatase inhibition: inactive against aromatase
[18]
  GI50: 0.397 µM
  CC50: > 100 µM
[19]
  GI50: 3.39 µM
  CC50: > 100 µM
[20]
  CC50: 69.9 µM
  GI50: 0.671 µM
[21]
  GI50: 6.25 µM
  CC50: > 100 µM
[22]
  CC50: > 100 µM
  GI50: 1.28 µM
[23]
  CC50: 8.78 µM
  GI50: 0.226 µM
[24]
  GI50: 5.37 µM
  CC50: > 100 µM
[25]
  GI50: 3.14 µM
  CC50: > 100 µM

— PMC12203311, “Design, synthesis, in silico and in vitro evaluation of pyrrole–indole hybrids as dual tubulin and aromatase inhibitors with potent anticancer activities” (RSC Advances, 2025)
